Measurements reported in patent US4963563A, “6-substituted-1,2,3,4-tetrahydroisoquinolines” (Abbott Laboratories, priority 1989, dated 1990).
Where a name gives a salt, the structure may show the parent alone.

How the values were obtained:
[1] = biological target: T1, alpha-1-receptor (Rattus norvegicus, UniProt P15823); assay: Radioligand binding, alpha-1 adrenoceptor ([3H]-pyrazosin, rat liver homogenates)
T1 sequence (P15823 1-515): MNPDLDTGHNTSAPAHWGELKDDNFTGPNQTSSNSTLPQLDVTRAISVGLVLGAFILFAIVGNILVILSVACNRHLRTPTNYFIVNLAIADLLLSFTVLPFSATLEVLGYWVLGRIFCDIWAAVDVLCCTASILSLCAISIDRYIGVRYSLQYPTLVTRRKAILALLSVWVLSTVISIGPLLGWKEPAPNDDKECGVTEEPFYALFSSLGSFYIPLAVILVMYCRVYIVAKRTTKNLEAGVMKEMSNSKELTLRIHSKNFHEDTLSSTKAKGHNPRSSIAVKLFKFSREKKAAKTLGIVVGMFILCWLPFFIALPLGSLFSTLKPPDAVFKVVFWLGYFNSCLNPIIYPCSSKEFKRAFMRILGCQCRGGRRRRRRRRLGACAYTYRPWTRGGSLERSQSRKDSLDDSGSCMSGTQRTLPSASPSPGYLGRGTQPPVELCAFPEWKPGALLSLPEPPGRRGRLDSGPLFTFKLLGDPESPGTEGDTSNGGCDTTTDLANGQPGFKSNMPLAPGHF

[2] = biological target: alpha-2-receptor; assay: Radioligand binding, alpha-2 adrenoceptor ([3H]-rauwolscine, rat cerebral cortices)
[3] = test system: normal eyes of rabbits (intraocular pressure); assay: Antiglaucoma activity: intraocular pressure after instillation into normal eyes of rabbits; assay type: in vivo, male, albino New Zealand rabbits
Protocol: In order to evaluate antiglaucoma activity, the test compounds were dissolved in the vehicle, a 0.2% aqueous solution of hydroxymethylcellulose at various concentrations such as 0.03%, 0.1%, or 0.3%. Comparisons were made to the reference standard, pilocarpine hydrochloride which was dissolved in the vehicle at a concentration of 0.5%. Control treatment was a volume dose of vehicle.
Male, albino New Zealand rabbits (Scientific Animal Farms and/or Kuiper's Rabbit Ranch) weighing 2.06-2.5 kg were used in the study. Intraocular pressures were obtained in the normal eyes of the animals using a Bausch and Lomb Applamatic Tonometer. Three separate sessions provided the baseline pressures for each eye. The test compound or vehicle (0.1 mL) was instilled into the eyes of 6 different rabbits according to a randomized dosing schedule. Intraocular pressures were taken at 5, 15, 30, 45, 60, 90 and 120 minutes after instillation of the test compounds.
Statistical treatment was by one-way analysis of variance. Results are shown (Table 1) for a representative sample of the compounds claimed.

[4] = 5 minutes after administration, 0.3% solution, 0.1 mL instilled
[5] = 15 minutes after administration, 0.3% solution, 0.1 mL instilled
[6] = 90 minutes after administration, 0.3% solution, 0.1 mL instilled
[7] = 120 minutes after administration, 0.3% solution, 0.1 mL instilled

Ki [1] | Ki [2] | Structure (SMILES) | Percent Change in IOP vs Baseline [3, 4] | Percent Change in IOP vs Baseline [3, 5] | Percent Change in IOP vs Baseline [3, 6] | Percent Change in IOP vs Baseline [3, 7] | also measured
174 nM | 10.7 nM | COc1cccc(CCCN2CCc3cc(OC)ccc3C2)c1 [Example 8, 1,2,3,4-Tetrahydro-6-methoxy-N-3-(3-methoxyphenyl)propyl isoquinoline hydrochloride] | – | – | – | – | –
217 nM | 5.9 nM | COc1ccc2c(c1)CCN(CCCc1ccccc1)C2 [Example 7, 1,2,3,4-Tetrahydro-6-methoxy-N-(3-phenylpropyl)isoquinoline hydrochloride] | – | – | – | – | –
206 nM | 4.6 nM | COc1ccc2c(c1)CCN(CCCc1cccc(F)c1)C2 [Example 5, 1,2,3,4-Tetrahydro-6-methoxy-N-3-(m-fluorophenyl)propyl isoquinoline hydrochloride] | – | – | – | – | –
154 nM | 2.2 nM | COc1ccc2c(c1)CCN(CCCc1ccco1)C2 [Example 6, 1,2,3,4-Tetrahydro-6-methoxy-N-3-(2-furyl)propylisoquinoline hydrochloride] | – | – | – | – | –
150 nM | 4.3 nM | COc1ccc2c(c1)CCN(CCCc1cccs1)C2.Cl [Example 2, 1,2,3,4-Tetrahydro-6-methoxy-N-3-(2-thienyl)propylisoquinoline hydrochloride] | -50% | -41% | -13% | +8% | –

Second part, the compound before the results:

Structure (SMILES) | Ki [1] | Ki [2] | Percent Change in IOP vs Baseline [3, 4] | Percent Change in IOP vs Baseline [3, 5] | Percent Change in IOP vs Baseline [3, 6] | Percent Change in IOP vs Baseline [3, 7] | also measured
Cc1ccc2c(c1)CCN(CCCc1ccccc1)C2 [Example 13, 1,2,3,4-Tetrahydro-6-methyl-N-(3-(phenylpropylisoquinoline Hydrochloride] | 114 nM | 5.6 nM | – | – | – | – | –
CC(C)(C)C(=O)Oc1ccc2c(c1)CCN(CCCc1cccs1)C2.CS(=O)(=O)O [Example 16, 1,2,3,4-Tetrahydro-6-trimethylacetoxy-N-3-(2-thienyl)propylisoquinoline methane sulfonate] | – | – | -11% | -12% | -36% | -4% | –
CC[C@@H]1C(=O)OC[C@@H]1Cc1cncn1C [Pilocarpine, pilocarpine hydrochloride, reference compound] | – | – | – | – | – | – | Percent Change in IOP vs Baseline ([3]; 15 minutes after administration, 0.5% solution (reference standard)): -22%; Percent Change in IOP vs Baseline ([3]; 90 minutes after administration, 0.5% solution (reference standard)): -20%; Percent Change in IOP vs Baseline ([3]; 120 minutes after administration, 0.5% solution (reference standard)): -33%
CN(C)C(=O)Oc1ccc2c(c1)CCN(CCCc1cccs1)C2.CS(=O)(=O)O [Example 18, 1,2,3,4-Tetrahydro-6-((dimethylamino)carbonyl)oxy-2-N-(3-(2-thienyl)propyl)isoquinoline methane sulfonate] | – | – | -38% | -26% | -48% | -12% | –
